Assay results as given in patent publication US7732658B2, “Composition and method for imaging cells” (Dana Farber Cancer Institute, Inc., priority 2002, dated 2010).

Columns and labels:
[1] = system: multiple myeloma (MM) model; test: multiple myeloma (MM) model, cells selected for growth in bone; type: in vivo
Text: FIG. 19 is a representation of the results of generating a multiple myeloma (MM) model, that was created by selecting cells with affinity for growth in bone.

[2] = system: TS(4;11)-LucNeo cells; test: in vivo bioluminescence imaging of mice bearing MLL leukemia cell line TS(4;11), drug treatment
Text: FIG. 15 is a pictorial representation of treatment of mice bearing MLL leukemia cell line TS(4;11) with the FLT3 inhibitor PKC-412.

[3] = system: 32D/p210-Luc cells; test: CML model, 32D/p210-Luc cells imaged in vivo; design: species or system mice
Text: FIG. 21 is a representation showing the results of a CML model used to evaluate the ABL-inhibitor AMN107.

Nc1ncnc2c1c(-c1cccc(OCc3ccccc3)c1)cn2C1CC(CN2CCCC2)C1 (stereo not drawn) [ADW]
tumor burden ([1]; FIG. 19): reduction of tumor burden
survival as compared to untreated control ([1]; FIG. 20): positively correlated with survival

CO[C@@H]1[C@H](N(C)C(=O)c2ccccc2)C[C@H]2O[C@]1(C)n1c3ccccc3c3c4c(c5c6ccccc6n2c5c31)C(=O)NC4 [PKC-412]
tumor cell size ([2]; mice bearing TS(4;11) MLL cells, FIG. 16 left graph): reduces tumor cell size
bioluminescent flux as compared to controls ([2]; nude mice, TS(4;11)-LucNeo cells, 150 mg/kg/day over a two week period): constant bioluminescent flux

Cc1cn(-c2cc(NC(=O)c3ccc(C)c(Nc4nccc(-c5cccnc5)n4)c3)cc(C(F)(F)F)c2)cn1 [AMN107]
tumor cell growth of 32D/p210-Luc cells (quantitative) ([3]; FIG. 22): inhibits tumor cell growth
efficacy against 32D/p210-Luc cells in vivo (qualitative) ([3]; five animals, nine day assay, FIG. 21): efficacious
